Measured values as given in patent US7071168B2, “Anti-cancer compounds and methods related thereto” (The Regents of the University of Colorado, priority 1998, dated 2006).

Tests used:
[1] = system: bradykinin response of isolated guinea pig ileum; assay: Anti-bradykinin activity on isolated guinea pig ileum
How it was run: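 Bradykinin concentration-effect curves were run in the absence and presence of compound. Tissue: 25 mm terminal ileum from male Hartley guinea pigs fasted overnight, held at 1 g tension in O2/CO2-bubbled Krebs' solution after 1 h equilibration.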

SCLC strain SHP-77 = assay: Colorimetric tetrazolium (MTT) assay for cell survival, SCLC strain SHP-77; type: cell-based, human
How it was run: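 MTT assay: cells seeded overnight, treated in triplicate across a concentration range for 4 days at 37 °C, 5% CO2. On day 5, MTT was added for 4 h; formazan was dissolved in acidified isopropanol and absorbance read.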

[2] = isolated guinea pig ileum, pD2 of bradykinin is 7.4, higher numbers indicate higher potency
[3] = Table 1, higher numbers indicate higher potency

## CN(C(=O)C(Cc1cc(I)c(OCc2c(Cl)cccc2Cl)c(I)c1)NC(=O)C=Cc1c(F)c(F)c(F)c(F)c1F)C1CC(C)(C)NC(C)(C)C1 (centres unmarked) [M664]
[1]; [2]
  GPI: pA2 for bradykinin antagonist activity on isolated guinea pig ileum: 5.0
SCLC strain SHP-77; SCLC strain SHP-77 in vitro
  MTT: ED50 for killing of SCLC strain SHP-77 in vitro: 1200 nM

## CN(C)c1cccc2c(S(=O)(=O)NC(Cc3cc(I)c(OCc4c(Cl)cccc4Cl)c(I)c3)C(=O)N(C)C3CC(C)(C)NC(C)(C)C3)cccc12 (centres unmarked) [M666]
[1]; [2]
  GPI: pA2 for bradykinin antagonist activity on isolated guinea pig ileum: 5.0
SCLC strain SHP-77; SCLC strain SHP-77 in vitro
  MTT: ED50 for killing of SCLC strain SHP-77 in vitro: 1300 nM

## CN(C)c1ccc(CNC(=O)C(Cc2ccc(F)cc2)NC(=O)C=Cc2c(F)c(F)c(F)c(F)c2F)cc1 (centres unmarked) [M832]
[1]; [2]
  GPI: pA2 for bradykinin antagonist activity on isolated guinea pig ileum: 4.6
SCLC strain SHP-77; SCLC strain SHP-77 in vitro
  MTT: ED50 for killing of SCLC strain SHP-77 in vitro: 47000 nM

## (DArg-Arg-Pro-Hyp)2Dpr-Igl-Ser-DIgl-Oic-Arg [B10098]
[1]; [3]
  GPI: pA2 for bradykinin antagonist activity on isolated guinea pig ileum: 5.3
SCLC strain SHP-77; Table 1, SHP-77, MTT, 4 days
  MTT: ED50 for killing of SCLC strain SHP-77 in vitro: 20000 nM

## (Dns-DArg-Igl-Arg)2-DDA [M678]
[1]; [2]
  GPI: pA2 for bradykinin antagonist activity on isolated guinea pig ileum: 5.3
SCLC strain SHP-77; SCLC strain SHP-77 in vitro
  MTT: ED50 for killing of SCLC strain SHP-77 in vitro: 1100 nM

## (Gun)2-BApG-DArg-Arg-Pro-Hyp-Gly-Igl-Ser-DIgl-Oic-Arg [B10092]
[1]; [3]
  GPI: pA2 for bradykinin antagonist activity on isolated guinea pig ileum: 8.7
SCLC strain SHP-77; Table 1, SHP-77, MTT, 4 days
  MTT: ED50 for killing of SCLC strain SHP-77 in vitro: >20000 nM

## Aaa-DPhe-hPhe-Arg [M754]
[1]; [3]
  GPI: pA2 for bradykinin antagonist activity on isolated guinea pig ileum: 4.6
SCLC strain SHP-77; Table 1, SHP-77, MTT, 4 days
  MTT: ED50 for killing of SCLC strain SHP-77 in vitro: Inact

## Ac-Darg-Arg-Aud-DF5F-Oic-Arg [M868]
[1]; [3]
  GPI: pA2 for bradykinin antagonist activity on isolated guinea pig ileum: 6.5
SCLC strain SHP-77; Table 1, SHP-77, MTT, 4 days
  MTT: ED50 for killing of SCLC strain SHP-77 in vitro: 55000 nM

## Aca-c[DArg-Arg-Pro-Hyp-Gly-Thi-Ser-Nig-Oic-Arg] [B10304]
[1]; Table 3, cyclic peptides
  GPI: pA2 for bradykinin antagonist activity on isolated guinea pig ileum: 6.4
SCLC strain SHP-77; Table 3, cyclic peptides
  MTT: ED50 for killing of SCLC strain SHP-77 in vitro: Inact

## Ava-Igl-Ser-DF5F-Oic-Arg [M806]
[1]; [3]
  GPI: pA2 for bradykinin antagonist activity on isolated guinea pig ileum: 5.6
SCLC strain SHP-77; Table 1, SHP-77, MTT, 4 days
  MTT: ED50 for killing of SCLC strain SHP-77 in vitro: Inact

## BApG-DArg-Arg-Pro-Hyp-Gly-Igl-Ser-DIgl-Oic-Arg [B10084]
[1]; [3]
  GPI: pA2 for bradykinin antagonist activity on isolated guinea pig ileum: 8.1
SCLC strain SHP-77; Table 1, SHP-77, MTT, 4 days
  MTT: ED50 for killing of SCLC strain SHP-77 in vitro: >20000 nM

## D-Arg-Arg-Aud-PaF(F5c)-Arg [M726]
[1]; [3]
  GPI: pA2 for bradykinin antagonist activity on isolated guinea pig ileum: 5.6
SCLC strain SHP-77; Table 1, SHP-77, MTT, 4 days
  MTT: ED50 for killing of SCLC strain SHP-77 in vitro: Inact

## DArg-Arg-Pro-Hyp-Gly-Igl-Ser-DIgl-Oic-Arg-Eac-Eac-DArg-Arg-Pro-Hyp-Gly-Igl-Ser-DIgl-Oic-Arg [B10088]
[1]; [3]
  GPI: pA2 for bradykinin antagonist activity on isolated guinea pig ileum: 7.1
SCLC strain SHP-77; Table 1, SHP-77, MTT, 4 days
  MTT: ED50 for killing of SCLC strain SHP-77 in vitro: 4000 nM

## DArg-Arg-Pro-Hyp-Gly-Igl-Ser-DIgl-Oic-Arg-NH2 [B10062]
[1]; [3]
  GPI: pA2 for bradykinin antagonist activity on isolated guinea pig ileum: 7.1
SCLC strain SHP-77; Table 1, SHP-77, MTT, 4 days
  MTT: ED50 for killing of SCLC strain SHP-77 in vitro: Inact

## DDD-( DArg-Arg-Add-Ser-DIgl-Oic-Arg)2 [M862]
[1]; [3]
  GPI: pA2 for bradykinin antagonist activity on isolated guinea pig ileum: 5.6
SCLC strain SHP-77; Table 1, SHP-77, MTT, 4 days
  MTT: ED50 for killing of SCLC strain SHP-77 in vitro: 1300 nM

## DDD-(DArg-2Nal-Arg)2 [M508]
[1]; [3]
  GPI: pA2 for bradykinin antagonist activity on isolated guinea pig ileum: Inact
SCLC strain SHP-77; Table 1, SHP-77, MTT, 4 days
  MTT: ED50 for killing of SCLC strain SHP-77 in vitro: 23000 nM

## DDD-(DArg-Arg-Add-Ser-DIgl-PFF-Arg)2 [M864]
[1]; [3]
  GPI: pA2 for bradykinin antagonist activity on isolated guinea pig ileum: Inact
SCLC strain SHP-77; Table 1, SHP-77, MTT, 4 days
  MTT: ED50 for killing of SCLC strain SHP-77 in vitro: 1800 nM

## DDD-(DArg-Arg-Aud-DF5F-Oic-Arg)2 [M846]
[1]; [3]
  GPI: pA2 for bradykinin antagonist activity on isolated guinea pig ileum: 7.1
SCLC strain SHP-77; Table 1, SHP-77, MTT, 4 days
  MTT: ED50 for killing of SCLC strain SHP-77 in vitro: 2000 nM

## DDD-(DArg-Arg-Aud-DIgl-PFF-Arg)2 [M842]
[1]; [3]
  GPI: pA2 for bradykinin antagonist activity on isolated guinea pig ileum: Inact
SCLC strain SHP-77; Table 1, SHP-77, MTT, 4 days
  MTT: ED50 for killing of SCLC strain SHP-77 in vitro: 1400 nM

## DDD-(DArg-Arg-Aud-DTic-Oic-Arg)2 [M790]
[1]; [3]
  GPI: pA2 for bradykinin antagonist activity on isolated guinea pig ileum: Inact
SCLC strain SHP-77; Table 1, SHP-77, MTT, 4 days
  MTT: ED50 for killing of SCLC strain SHP-77 in vitro: 1700 nM

## DDD-(DArg-Arg-Aud-DTic-hPhe-Arg)2 [M770]
[1]; [3]
  GPI: pA2 for bradykinin antagonist activity on isolated guinea pig ileum: Inact
SCLC strain SHP-77; Table 1, SHP-77, MTT, 4 days
  MTT: ED50 for killing of SCLC strain SHP-77 in vitro: 8000 nM

## DDD-(DArg-Arg-Aud-PaF(F5c)-Arg)2 [M728]
[1]; [3]
  GPI: pA2 for bradykinin antagonist activity on isolated guinea pig ileum: 5.3
SCLC strain SHP-77; Table 1, SHP-77, MTT, 4 days
  MTT: ED50 for killing of SCLC strain SHP-77 in vitro: 4000 nM

## DDD-(DArg-Arg-Aud-Pac-PaF(Fbz)-Arg)2 [M734]
[1]; [3]
  GPI: pA2 for bradykinin antagonist activity on isolated guinea pig ileum: 5.3
SCLC strain SHP-77; Table 1, SHP-77, MTT, 4 days
  MTT: ED50 for killing of SCLC strain SHP-77 in vitro: 1800 nM

## DDD-(DArg-Arg-Aud-Ser-DF5F-Oic-Arg)2 [M890]
[1]; [3]
  GPI: pA2 for bradykinin antagonist activity on isolated guinea pig ileum: 5.5
SCLC strain SHP-77; Table 1, SHP-77, MTT, 4 days
  MTT: ED50 for killing of SCLC strain SHP-77 in vitro: 1700 nM

## DDD-(DArg-Arg-Aud-Ser-DIgl-Oic-Arg)2 [M858]
[1]; [3]
  GPI: pA2 for bradykinin antagonist activity on isolated guinea pig ileum: 6.3
SCLC strain SHP-77; Table 1, SHP-77, MTT, 4 days
  MTT: ED50 for killing of SCLC strain SHP-77 in vitro: 4000 nM
